The results in this text go back to ChEMBL document CHEMBL1138955, “Novel gamma-secretase inhibitors discovered by library screening of in-house synthetic natural product intermediates” (Bioorg Med Chem Lett, 2006).

Experiment [1] deals with Gamma-secretase. The experiment is described as follows: Inhibition of beta amyloid protein 40. Format: protein-complex assay, Homo sapiens.
Experiment [2] has as its target Gamma-secretase. Kind of experiment: Inhibition of beta amyloid protein 42. It counts as protein-complex assay, Homo sapiens.
The target in experiment [3] is Gamma-secretase (Homo sapiens) (UniProt Q96BI3+Q9NZ42+Q8WW43+P49768+Q92542+P49810). Kind of experiment: Inhibition of beta amyloid protein 40 at 100 uM. Format: protein-complex assay.

Molecules are shown by their SMILES. pIC50: −log10 of the molar value. Bounds are passed on as bounds.

On to `O=C1CCC[C@@H](OCc2ccccc2)[C@@H]1OCc1ccccc1`, for which the pIC50 at Gamma-secretase [1] and at Gamma-secretase [2] was < 4.00 each time.

For the molecule `CO[C@@H]1CCCC(=O)[C@H]1OCc1ccccc1`, the figures for the pIC50 at Gamma-secretase [1] and at Gamma-secretase [2] were 5.31 and 4.86, respectively.

In the case of `O=C(OCc1ccccc1)N1CCCC(O)C1Cc1ccccc1` (stereo not drawn), the pIC50 against Gamma-secretase [1] and at Gamma-secretase [2] was < 4.00 in each case.

In the case of `CO[C@@H]1CC(O)CC(=O)[C@H]1OCc1ccccc1` (stereo partly drawn), the pIC50 against Gamma-secretase [1] and at Gamma-secretase [2] was < 4.00 throughout.

Consider `CO[C@@H]1CCCC(=O)[C@H]1O`, for which the negative logarithm of the IC50 (pIC50) on Gamma-secretase [1] and against Gamma-secretase [2] was < 4.00 each time.

On to `CO[C@@H]1C(=O)C=CC[C@H]1OCc1ccccc1`, for which the negative logarithm of the IC50 (pIC50) (as a rule, the IC50 on a negative log10 scale, so that one unit is a factor of ten) against Gamma-secretase [1] was 4.47; on Gamma-secretase [2], 4.59.

As to `O=C1C=CC(O)N(C(=O)OCc2ccccc2)C1Cc1ccccc1` (stereo not drawn), the negative-log IC50 (pIC50) at Gamma-secretase [1] is 6.30; against Gamma-secretase [2], 6.15.

Regarding `COC(=O)N1CC=CC(=O)C1Cc1ccccc1` (stereo not drawn), the negative logarithm of the IC50 (pIC50) against Gamma-secretase [1] was 5.14; against Gamma-secretase [2] it was 5.01.

`CO[C@@H]1C(=O)CCC[C@H]1O`: the pIC50 against Gamma-secretase [1] and against Gamma-secretase [2] was < 4.00 in each case.

Regarding `O=C1C=CC[C@@H](OCc2ccccc2)[C@@H]1OCc1ccccc1`, the negative logarithm of the IC50 (pIC50) was 5.80 on Gamma-secretase [1] and 5.96 against Gamma-secretase [2].

Take `O=C1C=CCN(S(=O)(=O)c2ccccc2)C1Cc1ccccc1` (stereo not drawn): the results for the pIC50 against Gamma-secretase [1] and against Gamma-secretase [2] were 5.23 and 4.91, respectively.

`O=C1C=CCN(C(=O)OCc2ccccc2)C1Cc1ccccc1` (stereo not drawn): the pIC50 was 5.34 on Gamma-secretase [1] and 5.13 against Gamma-secretase [2].

Consider `CO[C@@H]1CC=CC(=O)[C@H]1OCc1ccccc1`, for which the negative-log IC50 (pIC50) against Gamma-secretase [1] is 5.16; against Gamma-secretase [2], 4.99.

Turning to `O=C1C=CCN(C(=O)c2ccccc2)C1Cc1ccccc1` (stereo not drawn), the figures for the negative logarithm of the IC50 (pIC50) on Gamma-secretase [1] and on Gamma-secretase [2] were 6.00 and 5.66, respectively.

With `COC(=O)N1CCCC(=O)C1Cc1ccccc1` (stereo not drawn), the negative logarithm of the IC50 (pIC50) against Gamma-secretase [1] and at Gamma-secretase [2] was < 4.00 in each case.

With `CO[C@@H]1C(=O)CCC[C@H]1OCc1ccccc1`, the pIC50 at Gamma-secretase [1] and on Gamma-secretase [2] was < 4.00 throughout.

For `COC(=O)N1CCCC(O)C1Cc1ccccc1` (stereo not drawn), the negative-log IC50 (pIC50) against Gamma-secretase [1] and against Gamma-secretase [2] was < 4.00 throughout.

For `CO[C@@H]1C(=O)CC(O)C[C@H]1OCc1ccccc1` (stereo partly drawn), the negative-log IC50 (pIC50) at Gamma-secretase [1] and against Gamma-secretase [2] was < 4.00 each time.

On to `O=C1CCCN(C(=O)OCc2ccccc2)C1Cc1ccccc1` (stereo not drawn), for which the inhibition (in general, the change of the read-out against control, counted positive when it falls) in experiment [3] worked out at 21%. Besides, the negative logarithm of the IC50 (pIC50) against Gamma-secretase [2] is < 4.00.
